Results from patent publication US7422886B2, “Method for determining modulation of P110Δ activity” (Ludwig Institute for Cancer Research, priority 1996, dated 2008).

Columns and labels:
p110δ/p85α = p110δ/p85α (Homo sapiens, UniProt O00329, S675R); test: Lipid kinase assay of drug effects on p110δ/p85α; assay type: biochemical; conditions: PtdIns substrate, 40 μM ATP, 10 min at 25° C., 1% DMSO; read-out: IC50, inhibition of lipid kinase activity
Protocol: (§1) Lipid kinase activity was performed essentially as described by Whitman et al. (1985). Lipid kinase assay buffer was 20 mM Tris HCl pH 7.4, 100 mM NaCl and 0.5 mM EGTA. Lipids were purchased from Sigma. The final concentration of ATP and Mg^2+ in the assay were routinely 0.5 and 3.5 mM, respectively, while lipids were used at 0.2-0.4 mM concentration. Unless otherwise indicated, kinase reaction was for 10 min at 37° C. The solvent for TLC separation of reaction products was propan-1-ol/2 M acetic acid/5 M H3PO4 (65:35:1). Assays of drug effects on the kinase were performed using PtdIns as substrate in the presence of 40 μM ATP (final) for 10 min at 25° C.; all tubes contained 1% DMSO. Activity was quantified by phosphorimager (Molecular Dynamics) analysis of TLC-separated lipid products.

p110α/p85α = p110α/p85α (Bos taurus, UniProt P32871); test: Lipid kinase assay of drug effects on p110α/p85α; assay type: biochemical
p110α/p85α, sequence (P32871 whole entry): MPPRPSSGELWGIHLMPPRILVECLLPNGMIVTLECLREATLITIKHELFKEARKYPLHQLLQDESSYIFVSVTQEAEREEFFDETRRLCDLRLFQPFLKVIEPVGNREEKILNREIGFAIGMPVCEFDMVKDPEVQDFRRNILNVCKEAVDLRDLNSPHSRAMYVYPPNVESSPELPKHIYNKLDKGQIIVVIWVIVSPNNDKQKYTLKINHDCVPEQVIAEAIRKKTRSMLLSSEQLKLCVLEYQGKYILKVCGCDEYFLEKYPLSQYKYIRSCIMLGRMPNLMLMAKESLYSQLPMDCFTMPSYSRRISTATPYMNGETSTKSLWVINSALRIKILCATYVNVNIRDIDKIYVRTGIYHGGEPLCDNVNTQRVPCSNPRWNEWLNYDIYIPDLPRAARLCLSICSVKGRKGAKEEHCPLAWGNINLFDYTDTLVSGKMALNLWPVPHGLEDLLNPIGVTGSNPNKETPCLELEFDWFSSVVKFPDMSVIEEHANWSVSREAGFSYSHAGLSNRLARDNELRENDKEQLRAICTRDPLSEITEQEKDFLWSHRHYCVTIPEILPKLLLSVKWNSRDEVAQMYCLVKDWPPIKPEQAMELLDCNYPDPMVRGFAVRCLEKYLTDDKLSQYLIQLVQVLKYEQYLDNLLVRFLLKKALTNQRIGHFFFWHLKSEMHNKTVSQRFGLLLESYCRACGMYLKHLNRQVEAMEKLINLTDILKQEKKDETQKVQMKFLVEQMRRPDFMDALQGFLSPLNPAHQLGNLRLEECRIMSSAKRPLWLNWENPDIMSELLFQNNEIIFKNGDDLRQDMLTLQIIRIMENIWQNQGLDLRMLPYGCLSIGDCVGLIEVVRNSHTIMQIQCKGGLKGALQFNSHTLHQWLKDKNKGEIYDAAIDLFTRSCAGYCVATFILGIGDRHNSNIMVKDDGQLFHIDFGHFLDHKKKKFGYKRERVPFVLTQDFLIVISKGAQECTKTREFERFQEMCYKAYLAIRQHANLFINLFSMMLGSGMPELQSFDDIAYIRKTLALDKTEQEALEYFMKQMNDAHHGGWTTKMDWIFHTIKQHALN
Protocol: as §1

p110δ/p85α, sequence (O00329 whole entry S675R): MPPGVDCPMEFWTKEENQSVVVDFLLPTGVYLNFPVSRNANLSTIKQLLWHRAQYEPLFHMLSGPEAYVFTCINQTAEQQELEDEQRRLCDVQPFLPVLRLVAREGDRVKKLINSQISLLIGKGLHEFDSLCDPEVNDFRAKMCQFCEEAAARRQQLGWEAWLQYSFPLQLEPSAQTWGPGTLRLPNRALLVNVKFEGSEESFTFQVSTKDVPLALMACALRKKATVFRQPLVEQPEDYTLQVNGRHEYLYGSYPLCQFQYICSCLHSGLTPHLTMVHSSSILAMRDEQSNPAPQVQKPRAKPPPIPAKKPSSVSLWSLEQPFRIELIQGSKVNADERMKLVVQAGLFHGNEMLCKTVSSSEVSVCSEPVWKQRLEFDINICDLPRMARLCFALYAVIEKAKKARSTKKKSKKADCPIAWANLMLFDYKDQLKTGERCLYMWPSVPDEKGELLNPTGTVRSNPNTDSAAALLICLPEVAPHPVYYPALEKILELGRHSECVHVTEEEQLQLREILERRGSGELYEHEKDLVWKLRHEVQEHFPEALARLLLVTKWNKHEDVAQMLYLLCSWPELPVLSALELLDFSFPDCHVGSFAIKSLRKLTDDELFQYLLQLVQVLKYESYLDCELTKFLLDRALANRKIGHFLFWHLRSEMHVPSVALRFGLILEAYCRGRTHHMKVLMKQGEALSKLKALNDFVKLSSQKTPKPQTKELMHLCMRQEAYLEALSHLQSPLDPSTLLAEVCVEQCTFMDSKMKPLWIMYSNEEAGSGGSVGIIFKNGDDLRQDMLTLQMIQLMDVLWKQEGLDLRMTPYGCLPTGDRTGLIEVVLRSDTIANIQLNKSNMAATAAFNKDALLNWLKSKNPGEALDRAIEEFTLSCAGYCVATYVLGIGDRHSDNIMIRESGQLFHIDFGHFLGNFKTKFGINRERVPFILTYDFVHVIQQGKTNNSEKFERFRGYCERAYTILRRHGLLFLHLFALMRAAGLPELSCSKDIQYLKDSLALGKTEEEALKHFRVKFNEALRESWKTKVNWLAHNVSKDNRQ
p110δ/p85α, sequence (P27986 whole entry partner): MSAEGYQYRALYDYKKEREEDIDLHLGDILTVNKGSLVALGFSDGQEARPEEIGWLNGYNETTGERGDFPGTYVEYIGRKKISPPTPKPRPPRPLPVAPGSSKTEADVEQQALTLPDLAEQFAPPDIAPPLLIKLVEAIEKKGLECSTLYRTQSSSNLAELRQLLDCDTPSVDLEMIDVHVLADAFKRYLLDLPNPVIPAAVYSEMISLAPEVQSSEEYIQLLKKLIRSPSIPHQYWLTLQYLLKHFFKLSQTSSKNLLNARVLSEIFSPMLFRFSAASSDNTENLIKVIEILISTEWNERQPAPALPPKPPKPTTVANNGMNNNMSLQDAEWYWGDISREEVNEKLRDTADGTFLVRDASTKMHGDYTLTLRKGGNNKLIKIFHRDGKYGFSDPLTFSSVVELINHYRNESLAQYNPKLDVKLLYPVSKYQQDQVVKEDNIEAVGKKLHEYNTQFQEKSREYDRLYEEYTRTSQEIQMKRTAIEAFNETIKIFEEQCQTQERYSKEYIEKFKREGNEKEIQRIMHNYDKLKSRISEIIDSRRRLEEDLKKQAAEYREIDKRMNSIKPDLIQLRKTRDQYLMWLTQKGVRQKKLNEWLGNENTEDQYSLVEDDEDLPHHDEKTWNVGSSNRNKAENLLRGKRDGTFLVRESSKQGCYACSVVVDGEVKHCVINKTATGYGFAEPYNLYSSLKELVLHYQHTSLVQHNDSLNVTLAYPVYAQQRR

Structure (SMILES) | IC50 (p110δ/p85α) | IC50 (p110α/p85α)
O=c1cc(N2CCOCC2)oc2c(-c3ccccc3)cccc12 [LY294002] | 500 nM | –
COC[C@H]1OC(=O)c2coc3c2[C@@]1(C)C1=C(C3=O)[C@@H]2CCC(=O)[C@@]2(C)C[C@H]1OC(C)=O [wortmannin] | – | 5 nM
